Measured values reported in patent US11612661B2 (priority 2019, dated 2023).
Numbered stars: 1 amine (or outer) side, 2 acyl side, 3 side chain; on linkers, the order of the positions; unused ones are H or OH. Bridge positions count the residues as written; N and C are the ends. Square brackets hold non-standard residues; d marks the D form. Triazole bridges read from a SMILES are 1,4-linked. Peptide text beside a SMILES is read from it. * marks the point of attachment. Gly(αS-SH) = O=C([C@@H](N[*:1])S[*:3])[*:2]; Tyr(3-I) = N[C@@H](Cc1ccc(O)c(I)c1)C(=O)O; Orn(N3) = [N-]=[N+]=NCCC[C@H](N)C(=O)O; NMeY = CN[C@@H](Cc1ccc(O)cc1)C(=O)O; Aha = [N-]=[N+]=NCC[C@H](N)C(=O)O; X1 = O=C(O)C[C@@H](N*)c1ccc(O)cc1; Cit = NC(=O)NCCC[C@H](N)C(=O)O; Hpra = C#CCC[C@H](N)C(=O)O; Pra = C#CC[C@H](N)C(=O)O; Sar = CNCC(=O)O

Key:
rat α9α10 nAChR = rat α9α10 nAChR (Rattus norvegicus, UniProt P43144+Q9JLB5); assay: cell-based; format: cell-based; details: for IC50: α9α10 nAChR IC50 (nM) Rat
human α9α10 nAChR = human α9α10 nAChR (Homo sapiens, UniProt Q9GZZ6+Q9UGM1); assay: cell-based; format: cell-based
Sequence of human α9α10 nAChR (Q9UGM1 26-479 limits assumed): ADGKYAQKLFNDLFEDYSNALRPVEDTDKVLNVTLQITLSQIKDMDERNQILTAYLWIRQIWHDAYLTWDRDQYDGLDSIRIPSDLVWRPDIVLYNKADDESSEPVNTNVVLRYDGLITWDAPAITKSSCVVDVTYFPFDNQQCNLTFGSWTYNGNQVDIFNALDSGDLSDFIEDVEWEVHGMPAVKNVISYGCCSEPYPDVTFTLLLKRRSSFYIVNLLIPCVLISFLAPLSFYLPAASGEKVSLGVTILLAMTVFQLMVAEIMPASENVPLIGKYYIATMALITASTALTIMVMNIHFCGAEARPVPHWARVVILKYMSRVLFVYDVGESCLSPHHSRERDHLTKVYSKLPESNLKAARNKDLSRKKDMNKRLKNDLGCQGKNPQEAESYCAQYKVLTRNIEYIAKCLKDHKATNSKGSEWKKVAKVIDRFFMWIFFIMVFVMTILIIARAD
Sequence of human α9α10 nAChR (Q9GZZ6 25-450 limits assumed): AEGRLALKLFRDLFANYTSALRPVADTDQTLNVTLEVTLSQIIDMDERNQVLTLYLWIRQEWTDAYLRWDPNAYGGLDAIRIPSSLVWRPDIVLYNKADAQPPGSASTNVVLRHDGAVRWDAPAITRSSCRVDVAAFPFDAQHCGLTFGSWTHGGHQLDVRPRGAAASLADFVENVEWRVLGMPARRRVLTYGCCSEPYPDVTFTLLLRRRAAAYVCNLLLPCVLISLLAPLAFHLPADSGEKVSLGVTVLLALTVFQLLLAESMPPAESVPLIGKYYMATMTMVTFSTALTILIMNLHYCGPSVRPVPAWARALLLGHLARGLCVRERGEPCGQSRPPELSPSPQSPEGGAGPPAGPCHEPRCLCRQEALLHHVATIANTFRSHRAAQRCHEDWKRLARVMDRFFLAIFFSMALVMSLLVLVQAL

Sequence of rat α9α10 nAChR (P43144 26-479 limits assumed): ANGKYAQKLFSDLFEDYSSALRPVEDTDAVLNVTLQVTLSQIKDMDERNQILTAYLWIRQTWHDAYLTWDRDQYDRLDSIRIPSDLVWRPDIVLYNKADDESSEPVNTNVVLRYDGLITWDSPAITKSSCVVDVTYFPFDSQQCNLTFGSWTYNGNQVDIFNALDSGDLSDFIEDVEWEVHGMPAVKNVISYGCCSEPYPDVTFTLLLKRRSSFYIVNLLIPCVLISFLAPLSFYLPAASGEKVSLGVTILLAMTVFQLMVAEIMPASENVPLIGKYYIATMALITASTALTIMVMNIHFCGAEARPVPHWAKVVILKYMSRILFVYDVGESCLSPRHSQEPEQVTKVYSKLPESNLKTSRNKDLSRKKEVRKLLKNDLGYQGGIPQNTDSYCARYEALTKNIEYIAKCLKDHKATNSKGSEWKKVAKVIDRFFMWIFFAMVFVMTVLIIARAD
Sequence of rat α9α10 nAChR (Q9JLB5 25-447 limits assumed): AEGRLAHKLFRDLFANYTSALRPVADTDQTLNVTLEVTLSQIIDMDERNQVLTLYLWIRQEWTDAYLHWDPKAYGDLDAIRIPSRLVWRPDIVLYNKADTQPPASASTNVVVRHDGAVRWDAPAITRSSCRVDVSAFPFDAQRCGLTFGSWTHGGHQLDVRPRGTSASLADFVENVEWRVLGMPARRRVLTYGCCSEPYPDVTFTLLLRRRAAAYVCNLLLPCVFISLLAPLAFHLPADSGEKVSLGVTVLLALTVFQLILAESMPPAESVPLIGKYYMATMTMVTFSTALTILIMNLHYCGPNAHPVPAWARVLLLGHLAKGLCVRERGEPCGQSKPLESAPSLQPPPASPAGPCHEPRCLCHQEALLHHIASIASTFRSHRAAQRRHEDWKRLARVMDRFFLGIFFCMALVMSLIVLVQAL

SMILES | IC50 (rat α9α10 nAChR) [nM] | IC50 (human α9α10 nAChR) [µM] | Loss in activity on the rat channel on deletion of amino acid 13 (1a vs 1q) (rat α9α10 nAChR) | Loss of activity on the human channel on deletion of amino acid 13 (1a vs 1q) (human α9α10 nAChR)
C[C@@H](O)[C@@H]1NC(=O)[C@@H]2Cc3cn(nn3)CCC[C@@H](C(=O)N[C@@H](Cc3ccc(O)cc3)C(=O)N(C)CC(=O)O)NC(=O)[C@H](CCC(N)=O)NC(=O)[C@H](Cc3c[nH]c4ccccc34)NC(=O)[C@H](CCCNC(N)=O)NC(=O)[C@H](CSSC[C@H](NC(=O)CN)C(=O)N2)NC(=O)[C@H](CCCNC(=N)N)NC(=O)[C@@H]2CCCN2C(=O)[C@H](CC(=O)O)NC1=O [In, glycine, glycyl-L-cysteinyl-L-alanyl-L-threonyl-L-α-aspartyl-L-prolyl-L-arginyl-L-cysteinyl-N5-(aminocarbonyl)-L-ornithyl-L-tryptophyl-L-glutaminyl-L-norvalyl-L-tyrosyl-N-methyl-cyclic (2→8)-disulfide-cyclic 3^3,12^5-(1H-1,2,3-triazole-4,1-diyl)] (H-GC[Pra]TDPRC[Cit]WQ[Orn(N3)]Y[Sar]-OH; disulfide 2-8; triazole 3-12) | ≤ 10 | 0.037 ± 0.015 |  | 
C[C@@H](O)[C@@H]1NC(=O)[C@@H]2CCn3cc(nn3)CC[C@@H](C(=O)N[C@@H](Cc3ccc(O)cc3)C(=O)O)NC(=O)[C@H](CCC(N)=O)NC(=O)[C@H](Cc3c[nH]c4ccccc34)NC(=O)[C@H](CCCNC(N)=O)NC(=O)[C@H](CSSC[C@H](NC(=O)CN)C(=O)N2)NC(=O)[C@H](CCCNC(=N)N)NC(=O)[C@@H]2CCCN2C(=O)[C@H](CC(=O)O)NC1=O [Ii, L-tyrosine, glycyl-L-cysteinyl-(2S)-2-aminobutanoyl-L-threonyl-L-α-aspartyl-L-prolyl-L-arginyl-L-cysteinyl-N5-(aminocarbonyl)-L-ornithyl-L-tryptophyl-L-glutaminyl-L-(2S)-2-aminobutanoyl-cyclic (2→8)-disulfide-cyclic 3^4,12^4-(1H-1,2,3-triazole-1,4-diyl)] (H-GC[Aha]TDPRC[Cit]WQ[Hpra]Y-OH; disulfide 2-8; triazole 3-12) | 1.6 ± 0.6 | 0.0034 ± 0.0014 |  | 
C[C@@H](O)[C@@H]1NC(=O)[C@@H]2CCCCNC(=O)CC[C@@H](C(=O)N[C@@H](Cc3ccc(O)cc3)C(N)=O)NC(=O)[C@H](CCC(N)=O)NC(=O)[C@H](Cc3ccc(O)c(I)c3)NC(=O)[C@H](CCCNC(N)=O)NC(=O)[C@H](CSSC[C@H](NC(=O)CN)C(=O)N2)NC(=O)[C@H](CCCNC(=N)N)NC(=O)[C@@H]2CCCN2C(=O)[C@H](CC(=O)O)NC1=O [Ix] (H-GCKTDPRC[Cit][Tyr(3-I)]QEY-NH2; disulfide 2-8; lactam 3-12) | 21 ± 1.4 | 0.123 ± 0.022 |  | 
C[C@@H](O)[C@@H]1NC(=O)[C@H]2NC(=O)[C@@H](NC(=O)CN)CCCn3cc(nn3)C[C@H](NC(=O)[C@H](CCCNC(=N)N)NC(=O)[C@@H]3CCCN3C(=O)[C@H](CC(=O)O)NC1=O)C(=O)N[C@@H](CCCNC(N)=O)C(=O)N[C@@H](Cc1ccc(O)c(I)c1)C(=O)N[C@@H](CCC(N)=O)C(=O)N[C@H](C(=O)N[C@@H](Cc1ccc(O)cc1)C(N)=O)CSS2 [Id, L-tyrosinamide, glycyl-L-norvalyl-L-cysteinyl-L-threonyl-L-α-aspartyl-L-prolyl-L-arginyl-L-alanyl-N5-(aminocarbonyl)-L-ornithyl-L-3-iodotyrosyl-L-glutaminyl-L-cysteinyl-cyclic 2^5,8^3-(1H-1,2,3-triazole-1,4-diyl)-cyclic-(3→12)-disulfide] (H-G[Orn(N3)][Gly(αS-SH)]TDPR[Pra][Cit][Tyr(3-I)]QCY-NH2; triazole 2-8; disulfide 3-12) | ≥ 1000 | ≥ 1 |  | 
C[C@@H](O)[C@@H]1NC(=O)[C@@H]2Cc3cn(nn3)CCC[C@@H](C(=O)N[C@@H](Cc3ccc(O)cc3)C(=O)N(C)[C@@H](Cc3ccc(O)cc3)C(=O)O)NC(=O)[C@H](CCC(N)=O)NC(=O)[C@H](Cc3c[nH]c4ccccc34)NC(=O)[C@H](CCCNC(N)=O)NC(=O)[C@H](CSSC[C@H](NC(=O)CN)C(=O)N2)NC(=O)[C@H](CCCNC(=N)N)NC(=O)[C@@H]2CCCN2C(=O)[C@H](CC(=O)O)NC1=O [Ip, L-tyrosine, glycyl-L-cysteinyl-L-alanyl-L-threonyl-L-α-aspartyl-L-prolyl-L-arginyl-L-cysteinyl-N5-(aminocarbonyl)-L-ornithyl-L-tryptophyl-L-glutaminyl-L-norvalyl-L-tyrosyl-N-methyl-cyclic (2→8)-disulfide-cyclic 3^3,12^5-(1H-1,2,3-triazole-4,1-diyl)] (H-GC[Pra]TDPRC[Cit]WQ[Orn(N3)]Y[NMeY]-OH; disulfide 2-8; triazole 3-12) | ≤ 10 | 0.026 ± 0.0014 |  | 
C[C@@H](O)[C@@H]1NC(=O)[C@@H]2CCc3cn(nn3)CCC[C@@H](C(=O)N[C@@H](Cc3ccc(O)cc3)C(=O)O)NC(=O)[C@H](CCC(N)=O)NC(=O)[C@H](Cc3c[nH]c4ccccc34)NC(=O)[C@H](CCCNC(N)=O)NC(=O)[C@H](CSSC[C@H](NC(=O)CN)C(=O)N2)NC(=O)[C@H](CCCNC(=N)N)NC(=O)[C@@H]2CCCN2C(=O)[C@H](CC(=O)O)NC1=O [Ig, L-tyrosine, glycyl-L-cysteinyl-(2S)-2-aminobutanoyl-L-threonyl-L-α-aspartyl-L-prolyl-L-arginyl-L-cysteinyl-N5-(aminocarbonyl)-L-ornithyl-L-tryptophyl-L-glutaminyl-L-norvalyl-cyclic (2→8)-disulfide-cyclic 3^4,12^5-(1H-1,2,3-triazole-4,1-diyl)] (H-GC[Hpra]TDPRC[Cit]WQ[Orn(N3)]Y-OH; disulfide 2-8; triazole 3-12) | 22 ± 1.1 | 0.019 |  | 
C[C@@H](O)[C@@H]1NC(=O)[C@@H]2Cc3cn(nn3)CCC[C@@H](C(=O)N[C@H](CC(=O)O)c3ccc(O)cc3)NC(=O)[C@H](CCC(N)=O)NC(=O)[C@H](Cc3c[nH]c4ccccc34)NC(=O)[C@H](CCCNC(N)=O)NC(=O)[C@H](CSSC[C@H](NC(=O)CN)C(=O)N2)NC(=O)[C@H](CCCNC(=N)N)NC(=O)[C@@H]2CCCN2C(=O)[C@H](CC(=O)O)NC1=O [Iu, (R)-3-(amino)-3-(4-hydroxyphenyl)propionic acid, glycyl-L-cysteinyl-L-alanyl-L-threonyl-L-α-aspartyl-L-prolyl-L-arginyl-L-cysteinyl-N5-(aminocarbonyl)-L-ornithyl-L-tryptophyl-L-glutaminyl-L-norvalyl-cyclic (2→8)-disulfide-cyclic 3^3,12^5-(1H-1,2,3-triazole-4,1-diyl)] (H-GC[Pra]TDPRC[Cit]WQ[Orn(N3)]-X1; disulfide 2-8; triazole 3-12) | < 30 | ~0.1 |  | 
C[C@@H](O)[C@@H]1NC(=O)[C@@H]2Cc3cn(nn3)CCC[C@@H](C(=O)O)NC(=O)[C@H](CCC(N)=O)NC(=O)[C@H](Cc3c[nH]c4ccccc34)NC(=O)[C@H](CCCNC(N)=O)NC(=O)[C@H](CSSC[C@H](NC(=O)CN)C(=O)N2)NC(=O)[C@H](CCCNC(=N)N)NC(=O)[C@@H]2CCCN2C(=O)[C@H](CC(=O)O)NC1=O [Iq, L-norvaline, glycyl-L-cysteinyl-L-alanyl-L-threonyl-L-α-aspartyl-L-prolyl-L-arginyl-L-cysteinyl-N5-(aminocarbonyl)-L-ornithyl-L-tryptophyl-L-glutaminyl-cyclic (2→8)-disulfide-cyclic 3^3,12^5-(1H-1,2,3-triazole-4,1-diyl)] (H-GC[Pra]TDPRC[Cit]WQ[Orn(N3)]-OH; disulfide 2-8; triazole 3-12) | 69 ± 2 | > 0.3 | approximately 10 fold | greater than 100 fold
C[C@@H](O)[C@@H]1NC(=O)[C@@H]2Cc3cn(nn3)CCC[C@@H](C(=O)N[C@@H](Cc3ccccc3)C(=O)O)NC(=O)[C@H](CCC(N)=O)NC(=O)[C@H](Cc3c[nH]c4ccccc34)NC(=O)[C@H](CCCNC(N)=O)NC(=O)[C@H](CSSC[C@H](NC(=O)CN)C(=O)N2)NC(=O)[C@H](CCCNC(=N)N)NC(=O)[C@@H]2CCCN2C(=O)[C@H](CC(=O)O)NC1=O [Il, L-phenylalanine, glycyl-L-cysteinyl-L-alanyl-L-threonyl-L-α-aspartyl-L-prolyl-L-arginyl-L-cysteinyl-N5-(aminocarbonyl)-L-ornithyl-L-tryptophyl-L-glutaminyl-L-norvalyl-cyclic (2→8)-disulfide-cyclic 3^3,12^5-(1H-1,2,3-triazole-4,1-diyl)] (H-GC[Pra]TDPRC[Cit]WQ[Orn(N3)]F-OH; disulfide 2-8; triazole 3-12) |  | 0.011 ± 0.0014 |  | 
C[C@@H](O)[C@@H]1NC(=O)[C@@H]2Cc3cn(nn3)CCC[C@@H](C(=O)N[C@H](Cc3ccc(O)cc3)C(=O)O)NC(=O)[C@H](CCC(N)=O)NC(=O)[C@H](Cc3c[nH]c4ccccc34)NC(=O)[C@H](CCCNC(N)=O)NC(=O)[C@H](CSSC[C@H](NC(=O)CN)C(=O)N2)NC(=O)[C@H](CCCNC(=N)N)NC(=O)[C@@H]2CCCN2C(=O)[C@H](CC(=O)O)NC1=O [Im, D-tyrosine, glycyl-L-cysteinyl-L-alanyl-L-threonyl-L-α-aspartyl-L-prolyl-L-arginyl-L-cysteinyl-N5-(aminocarbonyl)-L-ornithyl-L-tryptophyl-L-glutaminyl-L-norvalyl-cyclic (2→8)-disulfide-cyclic 3^3,12^5-(1H-1,2,3-triazole-4,1-diyl)] (H-GC[Pra]TDPRC[Cit]WQ[Orn(N3)][dY]-OH; disulfide 2-8; triazole 3-12) |  | 0.05 ± 0.0012 |  | 
C[C@@H](O)[C@@H]1NC(=O)[C@@H]2Cc3cn(nn3)CCC[C@@H](C(=O)N[C@H](CCCNC(=N)N)C(=O)O)NC(=O)[C@H](CCC(N)=O)NC(=O)[C@H](Cc3c[nH]c4ccccc34)NC(=O)[C@H](CCCNC(N)=O)NC(=O)[C@H](CSSC[C@H](NC(=O)CN)C(=O)N2)NC(=O)[C@H](CCCNC(=N)N)NC(=O)[C@@H]2CCCN2C(=O)[C@H](CC(=O)O)NC1=O [Is, D-arginine, glycyl-L-cysteinyl-L-alanyl-L-threonyl-L-α-aspartyl-L-prolyl-L-arginyl-L-cysteinyl-N5-(aminocarbonyl)-L-ornithyl-L-tryptophyl-L-glutaminyl-L-norvalyl-cyclic (2→8)-disulfide-cyclic 3^3,12^5-(1H-1,2,3-triazole-4,1-diyl)] (H-GC[Pra]TDPRC[Cit]WQ[Orn(N3)][dR]-OH; disulfide 2-8; triazole 3-12) |  | 0.059 |  | 
